Assay results as given in patent US20030065039A1, “Biologically active 1,3-bis-aromatic-prop-2-en-1-ones, 1,3-bis-aromatic-propan-1-ones, and 1,3-bis-aromatic-prop-2-yn-1-ones” (Statens Serum Institute, priority 1997, published 2003).
Where two headings read alike, the source gives them in different places.

Columns and labels:
Format in all cases: cell-based
Plasmodium falciparum = Plasmodium falciparum Assay; conditions: 3-H-hypoxanthine incorporation, 48 hours, read-out: Plasmodium IC50 ± SD
Protocol: The experiments in which compounds were tested for their ability to inhibit parasite growth were performed by a modification of the method originally described by Jensen et al. (1982). 50 μl of parasitized erythrocytes (parasitemia approximately 1%) in a concentration of 5×10^8/ml and 50 μl of RPMI medium containing different concentrations of the test compound was added to each well of a 96 well flat-bottomed microtiter plate. The cultures were then incubated for 48 hours, 24 hours before termination of the culture adding 20 μl of 3-H-hypoxanthine (40 uCi/ml) was added to each well. The cultures were then harvested onto glass fiber filters using a Skatron cell harvester, and the incorporation of 3-H-hypoxanthine into the DNA of dividing parasites was determined by liquid scintillation spectrometry. Control cultures with uninfected erythrocytes and infected erythrocytes in RPMI medium without test compounds were always performed in parallel to the test cultures. In some experiments thin smears of parasite cultures were stained by Giemsa and examined under microscope (×1000). The test compounds described above, were diluted in RPMI medium immediately before use. In the experiments, chloroquine phosphate was used as a positive control as a drug known to inhibit parasite growth.

Leishmania promastigotes = Leishmania promastigotes Assay; conditions: read-out: Leishmania IC50 ± SD
Protocol: A WHO reference vaccine strain of L. major originally isolated from a patient in Iran and a Kenyan strain of L. donovani (MHOM(/KE/85/NLB 274) were cultured in medium 199 containing 0.02 mg/ml gentamycin, 25 mM Hepes, 4 mM L-glutamine, and 20% heat inactivated fetal calf serum (FCS). Incubation was carried out at 26° C. Promastigotes were harvested on day 3 and 6 of the culture and used for the parasite growth inhibition.
The effect of the test compounds on promastigotes was assessed by a method similar to the one described by Pearson et al., by incubating promastigotes (3×10^6/ml) at 26° C. for 2 hrs in the presence of a given compound or the medium alone in 96 wells flat bottom microtiter plates. Following incubation, 100 μCi of 3H-thymidine was added to each well and further incubated for 18 hrs. Promastigotes were then harvested on filter paper by means of a cell harvester, extensively washed with distilled water and counted in a scintillation counter. The promastigotes were also counted microscopically and their flagellar motility was assessed.

human lymphocytes = assay: Lymphocyte Proliferation Assay; conditions: read-out: Lymphocytes IC50 ± SD
Protocol: Human blood mononuclear cells (BMNC) from heparinized blood were isolated by metrizoate sodium-Ficoll density gradient centrifugation, washed 3 times in RPMI 1640 medium supplemented with 5% FCS and with 400 IU of penicillin plus 400 μg/ml streptomycin. BMNC were resuspended in the medium and cultured in triplicate, 0.63×10^5/ml and 160 μl per vial, in round-bottom microtiter plates with 20 μl of various concentrations of the test compound. Immediately prior to incubation, optimum concentrations of the mitogen phytohaemagglutinin (PHA) and the antigen purified protein derivative of tuberculin (PPD) were added to the cultures in a volume of 20 μl. Unstimulated control cultures were always included. Cultures were incubated for 3 or 7 days. The degree of lymphocyte proliferation was estimated by ^3H-thymidine (1 μCi per well) addition 24 h before the cells were harvested on glass fiber filters by means of a harvesting machine), and ^3H-thymidine incorporation was measured in a liquid scintillation counter. For each set of triplicate values, the median was recorded. Unstimulated cultures were always included as controls.

[1] = Leishmania, promastigotes, 3H-thymidine uptake
[2] = Lymphocyte, PHA provoked proliferation of human lymphocytes
[3] = promastigotes, 3H-thymidine uptake
[4] = PHA provoked proliferation of human lymphocytes

IC50 (Plasmodium falciparum; Plasmodium falciparum) [µM]	IC50 (Leishmania promastigotes; [1]) [µM]	Compound	IC50 (human lymphocytes; [2]) [µM]	IC50 (Plasmodium falciparum) [µM]	IC50 (Leishmania promastigotes; [3]) [µM]	IC50 (human lymphocytes; [4]) [µM]	also measured
10	26 ± 2	CCCc1cc(/C=C/C(=O)c2ccc(O)cc2)c(OC)cc1O [2-OCH3-4,4′-OH-5-propyl, 2-methoxy-4,4′-dihydroxy-5-propylchalcone]	41 ± 3	–	–	–	–
–	–	C=CCOc1ccc(C(=O)/C=C/c2cc(OC)ccc2OC)cc1 [2,5-OCH3-4′-allyloxy]	–	23	73 ± 4	55 ± 2	–
51	15 ± 1	O=C(/C=C/c1ccccc1)c1ccc(F)cc1 [4′-F, 4′-fluorochalcone]	23 ± 2	–	–	–	–
–	90 ± 14	C=CCOc1ccc(C(=O)/C=C/c2cc(OC)c(CCCC)c(OC)c2)cc1 [4-C4H9-3,5-OCH3-4′-allyloxy, 4-butyl-3,5-dimethoxy-4′-(2-propenyloxy)chalcone]	–	–	–	–	–
–	–	COc1ccc(/C=C/C(=O)c2cccc(Br)c2)c(OC)c1 [3′-Br-2,4-OCH3]	–	17	16 ± 1	37 ± 2	–
–	–	CCCCCCOc1ccc(C(=O)/C=C/c2ccccc2)cc1 [4′-OC6H13]	–	17	62 ± 5	99 ± 7	–
–	–	COc1ccc(/C=C/C(=O)c2ccccc2O)c(OC)c1 [2,4-OCH3-2′-OH]	–	28	35 ± 2	144 ± 9	–
–	–	C=CCOc1ccc(C(=O)/C=C/c2cc(OCC=C)ccc2OCC=C)cc1 [2,5,4′-allyloxy]	–	–	38 ± 2	61 ± 3	–
16	55 ± 3	COc1c(/C=C/C(=O)c2ccc(O)cc2)ccc(O)c1CC=C(C)C [Licochalcone C, 2-methoxy-3-(3-methyl-2-butenyl)-4,4′-dihydroxychalcone]	53 ± 2	–	–	–	–
–	–	O=C(/C=C/c1ccc(O)cc1)c1ccc(O)cc1 [4′-4-OH]	–	17	83 ± 5	59 ± 3	–
–	–	COc1ccc(/C=C/C(=O)c2ccccc2)c(OC)c1 [2,4-OCH3]	–	34	15	48 ± 2	–
8.9	8.7 ± 0.5	COc1ccc(C(=O)/C=C/c2cccc(Oc3ccccc3)c2)c(OC)c1OC [3-OC6H5-2′,3′,4′-OCH3, 3-phenoxy-2′,3′,4′-trimethoxychalcone]	17 ± 1	–	–	–	–
–	–	COc1cc(OC)c(/C=C/C(=O)c2ccc(O)cc2)c(OC)c1 [2,4,6-OCH3-4′-OH]	–	–	106 ± 8	44 ± 2	–
19	68 ± 4	COc1cc(O)ccc1/C=C/C(=O)c1ccc(O)cc1 [2-OCH3-4,4′-OH, 2-methoxy-4,4′-dihydroxychalcone]	94 ± 4	–	–	–	–
–	–	COc1cccc(OC)c1/C=C/C(=O)c1ccc(O)cc1 [2,6-OCH3-4′-OH]	–	–	82 ± 8	60 ± 2	–
11	19 ± 4	C=CCOc1ccc(C(=O)/C=C/c2cc(OC)c(CCCCCC)c(OC)c2)cc1 [4-C6H13-3,5-OCH3-4′-allyloxy, 4-hexyl-3,5-dimethoxy-4′-(2-propenyloxy)chalcone]	15 ± 1	–	–	–	–
44	20 ± 1	O=C(/C=C/c1ccccc1)c1ccccc1 [Chalcon]	21 ± 2	–	–	–	–
–	–	COc1ccc(OC)c(C(=O)/C=C/c2ccc(Cl)cc2Cl)c1 [2′,5′-OCH3-2,4-Cl]	–	–	7.8 ± 0.7	5.7 ± 0.5	–
29	9.7 ± 0.9	COc1ccc(C(=O)/C=C/c2cccc(F)c2)c(OC)c1OC [3-F-2′,3′,4′-OCH3, 3-fluoro-2′,3′,4′-trimethoxychalcone]	6.4 ± 0.4	–	–	–	–
–	–	O=C(/C=C/c1ccc(O)c(O)c1)c1ccc(O)cc1O [2′,4′,3,4-OH]	–	49	66 ± 2	16 ± 1	–
–	–	C=CCOc1ccc(C(=O)/C=C/c2c(OC)cccc2OC)cc1 [2,6-OCH3-4′-allyloxy]	–	–	81 ± 7	96 ± 8	–

IC50 (Plasmodium falciparum; Plasmodium falciparum) [µM]	IC50 (Leishmania promastigotes; [1]) [µM]	Compound	IC50 (human lymphocytes; [2]) [µM]	IC50 (Plasmodium falciparum) [µM]	IC50 (Leishmania promastigotes; [3]) [µM]	IC50 (human lymphocytes; [4]) [µM]	also measured
5.1	9.7 ± 0.9	CCCCCCc1cc(/C=C/C(=O)c2ccc(O)cc2)c(OC)cc1O [2-OCH3-4,4′-OH-5-hexyl, 2-methoxy-4,4′-dihydroxy-5-hexylchalcone]	46 ± 3	–	–	–	–
–	–	COc1ccc(C(=O)/C=C/c2ccc(Cl)cc2Cl)c(OC)c1OC [2′,3′,4′-OCH3-2,4-Cl]	–	7.9	6.3 ± 0.6	7.8 ± 0.9	–
–	–	COc1cc(OC)c(OC)cc1/C=C/C(=O)c1ccc(O)cc1 [2,4,5,-OCH3-4′-OH]	–	13	16 ± 2	28 ± 2	–
–	–	C=CCOc1ccc(C(=O)/C=C/c2cccc(OC)c2OC)cc1 [2,3-OCH3-4′-allyloxy]	–	26	49 ± 3	96 ± 6	–
–	27 ± 2	O=C(/C=C/c1ccc(F)cc1)c1ccc(C2CCCCC2)cc1 [4′-cC6H11-4-F, 4-fluoro-4′-cyclohexylchalcone]	74 ± 2	–	–	–	–
43	15 ± 2	O=C(/C=C/c1ccc(F)cc1)c1ccc(F)cc1 [4′,4-F, 4,4′-difluorochalcone]	22 ± 1	–	–	–	–
–	–	CN(C)c1ccc(/C=C/C(=O)c2ccc(O)cc2)cc1 [4-N(CH3)2-4′-OH]	–	–	79 ± 6	130 ± 13	–
–	–	CCCCCCOc1ccc(C(=O)/C=C/c2ccc(OC)cc2OC)cc1 [2,4-OCH3-4′-OC6H13]	–	14	136 ± 15	–	–
–	–	COc1cc(/C=C/C(=O)c2ccc(O)cc2)cc(OC)c1 [3,5-OCH3-4′-OH]	–	25	12 ± 1	14 ± 1	–
33	22 ± 3	COc1c(/C=C/C(=O)c2ccc(O)cc2)ccc(O)c1C [2-OCH3-3-methyl-4,4′-OH, 2-methoxy-3-methyl-4,4′-dihydroxychalcone]	27 ± 4	–	–	–	–
–	–	COc1cc(O)ccc1/C=C/C(=O)c1ccc(N(C)C)cc1 [2-OCH3-4-OH-4′-N(CH3)2]	–	23	49 ± 4	111 ± 7	–
–	–	C=CCOc1ccccc1C(=O)/C=C/c1ccc(OC)cc1OC [2,4-OCH3-2′-allyloxy]	–	–	5 ± 0.7	–	–
–	–	COc1cc(/C=C/C(=O)c2ccc(O)cc2O)ccc1O [2′,4′,4-OH-3-OCH3]	–	43	16 ± 2	31 ± 2	–
28	39 ± 5	COc1cc(O)cc(C)c1/C=C/C(=O)c1ccc(O)cc1 [2-OCH3-4,4′-OH-6-methyl, 2-methoxy-4,4′-dihydroxy-6-methylchalcone]	53 ± 6	–	–	–	–
26	14 ± 2	COc1ccc(/C=C/C(=O)c2ccccc2Br)c(OC)c1 [2′-Br-2,4-OCH3, 2,4-dimethoxy-2′-bromochalcone]	35 ± 3	–	–	–	–
93	–	CN(C)c1ccc(C(=O)/C=C/c2ccc([N+](=O)[O-])cc2)cc1 [4′-N(CH3)2-4-NO2, 4-nitro-4′-dimethylaminochalcone]	–	–	–	–	–
–	–	O=C(/C=C/c1ccc([N+](=O)[O-])cc1)c1ccc([N+](=O)[O-])cc1 [4′,4-NO2, 4,4′-dinitro-chalcone]	–	–	–	–	IC50 (Leishmania promastigotes; Leishmania): 26 ± 4 µM; IC50 (human lymphocytes; Homo sapiens, Lymphocyte): 51 ± 3 µM
–	–	C=CCOc1ccc(C(=O)/C=C/c2cc(OC)c(OC)c(OC)c2)cc1 [3,4,5-OCH3-4′-allyloxy]	–	–	41 ± 4	30 ± 1	–
–	23 ± 2	COc1ccc(OC)c(/C=C/C(=O)c2ccc(O)cc2)c1 [2,5-OCH3-4′-OH, 2,5-dimethoxy-4′hydroxychalcone]	22 ± 1	–	–	–	–
–	–	COc1ccc(/C=C/C(=O)c2ccccc2OC)c(OC)c1 [2,4,2′-OCH3]	–	–	16 ± 1	26 ± 2	–

Compound	IC50 (Plasmodium falciparum; Plasmodium falciparum) [µM]	IC50 (Leishmania promastigotes; [1]) [µM]	IC50 (human lymphocytes; [2]) [µM]	IC50 (Plasmodium falciparum) [µM]	IC50 (Leishmania promastigotes; [3]) [µM]	IC50 (human lymphocytes; [4]) [µM]	also measured
CCCCOc1ccc(C(=O)/C=C/c2ccc(OC)cc2OC)cc1 [2,4-OCH3-4′-OC4H9, 2,4-dimethoxy-4′-butoxychalcone]	–	95 ± 10	–	–	–	–	–
CCCCOc1ccc(C(=O)/C=C/c2c(OC)cccc2OC)cc1 [2,6-OCH3-4′-OC4H9, 2,6-dimethoxy-4′-butoxychalcone]	14	104 ± 9	127 ± 10	–	–	–	–
